Assays:
[1] = Oral resorption of prodrugs
human citrated plasma = test: Prolongation of the aPTT time in human citrated plasma (Biomatic B10 coagulometer); format: biochemical; conditions: concentration at which the aPTT time is doubled compared with the control, 37° C.
Protocol: were investigated as follows for their effects on prolonging the aPTT time:
Materials: plasma, from human citrated blood. PTT reagent, Boehringer Mannheim (524298), Calcium solution (0.025 mol/l), Behring Werke, Marburg (ORH 056/57), Diethylbarbiturate acetate buffer, Behring Werke, Marburg (ORWH 60/61), Biomatic B10 coagulometer, Desaga, Wiesloch.
The aPTT time was determined using a Biomatic B10 coagulometer made by Messrs. Desaga.
The test substance was placed in the test tubes prescribed by the manufacturer together with 0.1 ml of human citrated plasma and 0.1 ml of PTT reagent. The mixture was incubated for three minutes at 37° C. The clotting reaction was started by the addition of 0.1 ml of calcium solution. The time is measured using the apparatus from the addition of the calcium solution up to the clotting of the mixture. Mixtures to which 0.1 ml of DBA buffer were added were used as the controls.
According to the definition, a dosage-activity curve was used to determine the effective concentration of the substance, i.e. the concentration at which the aPTT time is doubled compared with the control.

Structure (SMILES) | oral resorption [1] | aPTT time (ED200 in μM) (human citrated plasma) [µM]
CCCOC(=O)CN[C@@](C)(C(=O)N1CCCC1)c1ccc2c(c1)nc(CNc1ccc(C(=N)NC(=O)c3ccccc3)cc1)n2C [3(2), (R)-2-[4-(N-phenylcarbonylamidino)-phenylaminomethyl]-1-methyl-5-[1-(n-propyloxycarbonylmethylamino)-1-(pyrrolidinocarbonyl)-ethyl]-benzimidazole] | good oral resorption | –
CCOC(=O)CNC(C)(C(=O)N1CC=CC1)c1ccc2c(c1)nc(CNc1ccc(C(=N)N)cc1)n2C.Cl.Cl (centres unmarked) [A, 2-(4-amidinophenylaminomethyl)-1-methyl-5-[1-(ethoxycarbonylmethylamino)-1-(2,5-dihydropyrrolocarbonyl)-ethyl]-benzimidazole-dihydrochloride] | – | 0.13
C[C@@H]1CCCN1C(=O)[C@](C)(NCC(=O)O)c1ccc2c(c1)nc(CNc1ccc(C(=N)N)cc1)n2C.Cl.Cl [B, (R)-2-(4-amidinophenylaminomethyl)-1-methyl-5-[1-(carboxymethylamino)-1-[(R,S)-2-methyl-pyrrolidinocarbonyl]-ethyl]-benzimidazole-dihydrochloride] | – | 0.12
Cl.Cl.Cn1c(CNc2ccc(C(=N)N)cc2)nc2cc(C(C)(NCC(=O)O)C(=O)N3CC=CC3)ccc21 (centres unmarked) [C, 2-(4-amidinophenylaminomethyl)-1-methyl-5-[1-(carboxymethylamino)-1-(2,5-dihydropyrrolocarbonyl)-ethyl]-benzimidazole-dihydrochloride] | – | 0.22
CCCCOC(=O)CN[C@@](C)(C(=O)N1CCCC1)c1ccc2c(c1)nc(CNc1ccc(C(=N)NC(=O)c3ccccc3)cc1)n2C [Example 2, (R)-2-[4-(N-phenylcarbonylamidino)-phenylaminomethyl]-1-methyl-5-[1-(n-butyloxycarbonylmethylamino)-1-(pyrrolidinocarbonyl)-ethyl]-benzimidazole] | good oral resorption | –
